Source: patent US9073940B2, “Tricyclic pyrazol amine derivatives” (MERCK SERONO SA, priority 2009, dated 2015)
Structures can show the parent of a compound that is named as a salt.

Assays:
[1] = system: AKT phosphorylation (p-AKT Ser 473) in Ramos B-lymphocyte cell line; assay: Mechanistic on-target cell assay: flow cytometry of AKT phosphorylation after anti-human IGM stimulation; assay type: cell-based
Experimental: Mechanistic-On Target Cell Assay
The reaction was stopped by fixing the cells with Paraformaldehyde 4% (final) for 10 minutes at room temperature. Cells were washed once with Phosphate Buffer Saline (PBS), permabilized in PBS-Triton X-100 0.2% for 15 minutes at room temperature washed twice with PBS and once with PBS-4% serum. […] Cells were washed twice in PBS and resuspended in PBS. The cell suspension was passed on a FC500 flow cytometer (Beckman Coulter), gating on the IGM positive cells and measuring the AKT phosphorylation.

[2] = system: 4 PI3K isoforms (Human recombinant GST-PI3K); assay: PI3K scintillation proximity assay, best IC50 obtained with the four isoforms (alpha, beta, delta, gamma); assay type: biochemical; conditions: best IC50 obtained with the four isoforms of PI3K; read-out: Best potency measured on the 4 PI3K isoforms

Row | IC50 [1] [µM] | IC50 [2] [µM] | Molecule
1 | 0.388 | 0.641 | CCCn1nc(C(=O)N2CCOCC2)c2c1-c1ccccc1S(=O)(=O)C2 [Example 39, 3-(morpholin-4-ylcarbonyl)-1-propyl-1,4-dihydrothiochromeno[4,3-c]pyrazole 5,5-dioxide]
2 | 1.8 | 1.75 | Cn1nc(C(=O)N2CCOCC2)c2c1-c1ccccc1S(=O)(=O)C2 [Example 34, 1-methyl-3-(morpholin-4-ylcarbonyl)-1,4-dihydrothiochromeno[4,3-c]pyrazole 5,5-dioxide]
3 | 0.976 | 0.69 | Cc1ccc(-n2nc(C(=O)N3CCOCC3)c3c2-c2ccccc2S(=O)(=O)C3)cc1 [Example 7, 1-(4-methylphenyl)-3-(morpholin-4-ylcarbonyl)-1,4-dihydrothiochromeno[4,3-c]pyrazole 5,5-dioxide]
4 | 0.32 | – | O=C(c1nn([C@H]2CCCN(CCF)C2)c2c1CS(=O)(=O)c1ncccc1-2)N1CCOCC1 [Example 380]
5 | 0.492 | 0.043 | CN(C)Cc1ccc(-n2nc(C(=O)N3CCOCC3)c3c2-c2ccccc2S(=O)(=O)C3)cc1 [Example 226, N,N-Dimethyl-1-{4-[3-(morpholin-4-ylcarbonyl)-5,5-dioxidothiochromeno[4,3-c]pyrazol-1(4H)-yl]phenyl}methanamine]
6 | 0.094 | 0.052 | O=C(c1nn([C@H]2CCN(C3CCOCC3)C2)c2c1CS(=O)(=O)c1c(F)cccc1-2)N1CCOCC1 (single isomer, unassigned) [Example 355, 6-fluoro-3-(morpholin-4-ylcarbonyl)-1-[1-(tetrahydro-2H-pyran-4-yl)pyrrolidin-3-yl]-1,4-dihydrothiochromeno[4,3-c]pyrazole 5,5-dioxide hydrochloride salt]
7 | 0.214 | 0.045 | O=C(c1nn([C@@H]2CCN(C3CCOCC3)C2)c2c1CS(=O)(=O)c1ccccc1-2)N1CCOCC1 (single isomer, unassigned) [Example 403]
8 | 0.04 | 0.016 | O=C(c1nn([C@H]2CCCN(CCN3CCOCC3)C2)c2c1CS(=O)(=O)c1c(F)cccc1-2)N1CCOCC1 (single isomer, unassigned) [Example 350, 6-fluoro-3-(morpholin-4-ylcarbonyl)-1-[1-(2-morpholin-4-ylethyl)piperidin-3-yl]-1,4-dihydrothiochromeno[4,3-c]pyrazole 5,5-dioxide hydrochloride salt]
9 | 0.534 | – | CC(C)(C)OC(=O)N1CCC(Cn2nc(C(=O)N3CCOCC3)c3c2-c2ccccc2S(=O)(=O)C3)CC1 [Example 43, tert-butyl 4-{[3-(morpholin-4-ylcarbonyl)-5,5-dioxidothiochromeno[4,3-c]pyrazol-1(4H)-yl]methyl}piperidine-1-carboxylate]
10 | 0.492 | 0.437 | O=C(c1nn(C2CCCCC2)c2c1CS(=O)(=O)c1ncccc1-2)N1CCOCC1 [Example 79, 3-(Morpholin-4-ylcarbonyl)-1-cyclohexyl-1,4-dihydropyrazolo[3′,4′:4,5]thio pyrano[2,3-b]pyridine 5,5-dioxide]
11 | – | 3.96 | O=C(c1nn(Cc2ccccn2)c2c1CS(=O)(=O)c1ccccc1-2)N1CCOCC1 [Example 47, 3-(morpholin-4-ylcarbonyl)-1-(pyridin-2-ylmethyl)-1,4-dihydrothiochromeno[4,3-c]pyrazole 5,5-dioxide]
12 | – | 0.044 | COc1ccc2c(c1)S(=O)(=O)Cc1c(C(=O)N3CCOCC3)nn([C@H]3CCCN(CC4CCOC4)C3)c1-2 (stereo in doubt) [Example 395, 7-methoxy-3-(morpholin-4-ylcarbonyl)-1-[1-(tetrahydrofuran-3-ylmethyl)piperidin-3-yl]-1,4-dihydrothiochromeno[4,3-c]pyrazole 5,5-dioxide]
13 | – | 0.226 | CNCc1ccc(-n2nc(C(=O)N3CCOCC3)c3c2-c2ccccc2S(=O)(=O)C3)cc1 [Example 449, N-Methyl-1-{4-[3-(morpholin-4-ylcarbonyl)-5,5-dioxidothiochromeno[4,3-c]pyrazol-1 (4H)-yl]phenyl}methanamine]
14 | – | 1.26 | O=C(NC1CCOCC1)c1cccc(-n2nc(C(=O)N3CCOCC3)c3c2-c2ccccc2S(=O)(=O)C3)c1 [Example 148, 3-[3-(Morpholin-4-ylcarbonyl)-5,5-dioxidothiochromeno[4,3-c]pyrazol-1(4H)-yl]-N-(tetrahydro-2H-pyran-4-yl)benzamide]
15 | – | 0.128 | COCCN1CCC[C@H](n2nc(C(=O)N3CCOCC3)c3c2-c2cccc(OC)c2S(=O)(=O)C3)C1 (single isomer, unassigned) [Example 428, 6-methoxy-1-[1-(2-methoxyethyl)piperidin-3-yl]-3-(morpholin-4-ylcarbonyl)-1,4-dihydrothiochromeno[4,3-c]pyrazole 5,5-dioxide]
16 | – | 3 | O=C(c1nn([C@@H]2CCCNC2)c2c1CS(=O)(=O)c1ccccc1-2)N1CCOCC1 (single isomer, unassigned) [Example 358]

The remaining lines, values behind:

Row | Molecule | IC50 [1] [µM] | IC50 [2] [µM]
17 | O=C(c1nn(CC2CCNCC2)c2c1CS(=O)(=O)c1ccccc1-2)N1CCOCC1 [Example 56, 3-(morpholin-4-ylcarbonyl)-1-(piperidin-4-ylmethyl)-1,4-dihydrothiochromeno[4,3-c]pyrazole 5,5-dioxide] | 8.15 | 0.531
18 | O=C(c1nn([C@H]2CCCN(CCN3CCOCC3)C2)c2c1CS(=O)(=O)c1cc(F)ccc1-2)N1CCOCC1 (stereo in doubt) [Example 472, 7-fluoro-3-(morpholin-4-ylcarbonyl)-1-[1-(2-morpholin-4-ylethyl)piperidin-3-yl]-1,4-dihydrothiochromeno[4,3-c]pyrazole 5,5-dioxide] | 0.045 | 0.014
19 | O=C(c1nn(C2CCCCC2)c2c1CS(=O)(=O)c1ccccc1-2)N1CCOCC1 [Example 12, 1-cyclohexyl-3-(morpholin-4-ylcarbonyl)-1,4-dihydrothiochromeno[4,3-c]pyrazole 5,5-dioxide] | 0.167 | 0.136
20 | O=C(c1nn(C2CCCC2)c2c1CS(=O)(=O)c1ccccc1-2)N1CCOCC1 [Example 73, 1-Cyclopentyl-3-(morpholin-4-ylcarbonyl)-1,4-dihydrothiochromeno[4,3-c]pyrazole 5,5-dioxide] | 0.317 | 0.205
21 | O=C(c1nn(CCO)c2c1CS(=O)(=O)c1ccccc1-2)N1CCOCC1 [Example 46, 2-[3-(morpholin-4-ylcarbonyl)-5,5-dioxidothiochromeno[4,3-c]pyrazol-1(4H)-yl]ethanol] | 0.68 | 0.661
22 | COc1cccc2c1S(=O)(=O)Cc1c(C(=O)N3CCOCC3)nn(-c3ccccc3)c1-2 [Example 1, 6-methoxy-3-(morpholin-4-ylcarbonyl)-1-phenyl-1,4-dihydrothiochromeno[4,3-c]pyrazole 5,5-dioxide] | 0.57 | 0.459
23 | 3-(morpholin-4-ylcarbonyl)-1-[1-(2-morpholin-4-ylethyl)piperidin-3-yl]-1,4-dihydrothiochromeno[4,3-c]pyrazole 5,5-dioxide [Example 345] | 0.068 | 0.016
24 | O=C(c1nn(-c2ccccc2)c2c1CS(=O)(=O)c1ccccc1-2)N1CCOCC1 [Example 33, 3-(morpholin-4-ylcarbonyl)-1-phenyl-1,4-dihydrothiochromeno[4,3-c]pyrazole 5,5-dioxide] | 0.706 | 0.244
25 | O=C(c1nn([C@@H]2CCCN(C3CCOCC3)CC2)c2c1CS(=O)(=O)c1ccccc1-2)N1CCOCC1 (single isomer, unassigned) [Example 400] | 0.888 | 0.104
26 | Nc1ccc2c(c1)-c1c(c(C(=O)N3CCOCC3)nn1-c1ccccc1)CS2(=O)=O [Example 65, 3-(Morpholin-4-ylcarbonyl)-1-phenyl-1,4-dihydrothiochromeno[4,3-c]pyrazol-8-amine 5,5-dioxide] | 0.251 | 0.368
27 | CS(=O)(=O)NCc1ccc(-n2nc(C(=O)N3CCOCC3)c3c2-c2ccccc2S(=O)(=O)C3)cc1 [Example 66, N-{4-[3-(Morpholin-4-ylcarbonyl)-5,5-dioxidothiochromeno[4,3-c]pyrazol-1(4H)-yl]benzyl}methanesulfonamide] | 0.942 | 0.421
28 | O=C(c1nn(-c2ccccc2)c2c1CS(=O)(=O)c1c(F)cccc1-2)N1CCOCC1 [Example 15, 6-fluoro-3-(morpholin-4-ylcarbonyl)-1-phenyl-1,4-dihydrothiochromeno[4,3-c]pyrazole 5,5-dioxide] | 0.364 | 0.424
29 | O=C(c1nn(-c2ccc(CN3CCOCC3)cc2)c2c1CS(=O)(=O)c1ccccc1-2)N1CCOCC1 [Example 137] | 0.3 | –
30 | COc1ccc(Cn2nc(C(=O)N3CCOCC3)c3c2-c2ccccc2S(=O)(=O)C3)cc1 [Example 38, 1-(4-methoxybenzyl)-3-(morpholin-4-ylcarbonyl)-1,4-dihydrothiochromeno[4,3-c]pyrazole 5,5-dioxide] | 0.942 | 0.459
31 | CCn1nc(C(=O)N2CCOCC2)c2c1-c1ccccc1S(=O)(=O)C2 [Example 37, 1-ethyl-3-(morpholin-4-ylcarbonyl)-1,4-dihydrothiochromeno[4,3-c]pyrazole 5,5-dioxide] | 0.493 | 0.601
32 | COCCN1CCC[C@H](n2nc(C(=O)N3CCOCC3)c3c2-c2ccccc2S(=O)(=O)C3)C1 (single isomer, unassigned) [Example 346, 1-[1-(2-methoxyethyl)piperidin-3-yl]-3-(morpholin-4-ylcarbonyl)-1,4-dihydrothiochromeno[4,3-c]pyrazole 5,5-dioxide] | 0.128 | 0.04
33 | O=C(c1nn([C@H]2CCCN(C3CCOCC3)CC2)c2c1CS(=O)(=O)c1ccccc1-2)N1CCOCC1 (single isomer, unassigned) [Example 401] | 3.63 | 0.34
